# Values of other authors as cited in patent US20110288064A1, “METHODS FOR TREATING DISORDERS ASSOCIATED WITH […] IN A MAMMAL” (priority 2005, published 2011).
# “Also recorded” adds a separate entry of the source. Like-named read-outs stand apart in the source and are kept apart here.
# Columns and labels:
# [1] = hoFH patients, ezetimibe 10 mg/day added to maximal statin regimen (atorvastatin or simvastatin 80 mg/day)
# [2] = animal model for homozygous FH, for example at 25 mg/day
# [3] = patients, 25 mg/day monotherapy
# [4] = clinical studies
structure (smiles),measurement,setting,value
O=C1[C@H](CC[C@H](O)c2ccc(F)cc2)[C@@H](c2ccc(O)cc2)N1c1ccc(F)cc1 [ezetimibe],total reduction of LDL-C levels,[1],27%
"O=C(NC1CCN(CCCCC2(C(=O)NCC(F)(F)F)c3ccccc3-c3ccccc32)CC1)c1ccccc1-c1ccc(C(F)(F)F)cc1 [BMS-201038, N-(2,2,2-Trifluorethyl)-9-[4-[4-[[[4′-(trifluoromethyl)[1,1′biphenyl]-2-Yl]carbonyl]amino]-1-piperidinyl]butyl]9H-fluorene-9-carboxamide]",plasma cholesterol levels,[2],effectively reduced plasma cholesterol levels in a dose dependent manner
same,adverse events,[3],"gastrointestinal disturbances, abnormalities in liver function, and hepatic steatosis; also recorded: gastrointestinal disorders, abnormalities in liver function and/or hepatic steatosis"
"Cc1cc(C)c2c3ccccc3n(Cc3ccc([C@@H](C(=O)N[C@H](CO)c4ccccc4)C4CCCC4)cc3)c2n1 [implitapide, (2S)-2-cyclopentyl-2-[4-[(2,4-dimethyl-9H-pyrido[2,3-b]indol-9-yl)methyl]phenyl]-N-[(1S)-2-hydroxy-1-phenylethyl]ethanamide]",therapeutic efficacy,[4]; 80 mg/day or greater,therapeutically effective
same,adverse events,"[4]; 80 mg/day or greater (80 mg/day, 160 mg/day)","gastrointestinal disturbances, abnormalities in liver function, and hepatic steatosis; also recorded: gastrointestinal disorders, abnormalities in liver function and/or hepatic steatosis"
